Where “and” joins values, the source holds several entries; their conditions need not be identical. Equal values may be shown once.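 Each compound was tested at five concentrations against cells in 96-well plates for 48 hours. GI50: concentration for 50% inhibition of growth. TGI denotes the concentration required for complete inhibition of growth.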

We go through 13 molecules from PubChem BioAssay (NCI).

Holding throughout (assay): NCI anticancer screen, dose series, 48 h
Experiment [1] relates to UO-31 renal.
The test system of experiment [2] is HCT-116 colon.
Experiment [3] has as its system SF-539 CNS.
The subject of experiment [4] is HCT-15 colon.
The subject of experiment [5] is MALME-3M melanoma.
In experiment [6] the test system is SF-268 CNS.
The test system of experiment [7] is 786-0 renal.
The subject of experiment [8] is SK-MEL-28 melanoma.
Experiment [9] relates to M14 melanoma.
Experiment [10] relates to OVCAR-8 ovarian.

In the case of `CCC1(O)C(=O)OCc2c1cc1n(c2=O)Cc2cc3ccc(C=O)cc3nc2-1` (stereo not drawn), the GI50 in experiment [1] was 1.08 µM; in [2] it was 0.519 µM; in experiment [3], 1.69 µM; in [5] it was 13.2 µM; in experiment [6], 0.376 µM; in experiment [7], 0.45 µM. Moreover, the GI50 is 11.2 µM in [8], 1.44 µM in experiment [9] and 0.539 µM in experiment [10]. The TGI in experiment [1] was 5.14 µM and 7.98 µM; in [2], 7.29 µM and 16.4 µM; in experiment [4], 40.2 µM and > 62.4 µM; in experiment [5], 50 µM and 41.2 µM; in experiment [6], 50 µM and 40 µM; in experiment [7], 9.18 µM and 4.95 µM. In addition, the TGI was 50 µM and > 100 µM in [8]; 50 µM and 19.2 µM in experiment [9]; 8.02 µM and 24.2 µM in [10].

For the molecule `CC/C=C\C[C@@H]1C/C=C2/C(=O)C=C[C@H]2C/C=C\CCCC(=O)O1`, the GI50 in experiment [1] was 0.929 µM; in experiment [2], 0.133 µM; in experiment [3], 0.533 µM; in experiment [4], 0.242 µM; in [5], 1.18 µM; in experiment [6] it was 1.34 µM. The GI50 in [7] was 0.818 µM; in experiment [8], 0.424 µM; in [9], 0.237 µM; in experiment [10], 0.342 µM. The TGI was 2.23 µM in experiment [1]; 0.32 µM in experiment [2]; 2.97 µM in experiment [3]; 0.865 µM in experiment [4]; 4.65 µM in experiment [5]; 3.67 µM in experiment [6]. Further, the TGI in [7] was found to be 2.18 µM; in experiment [8], 1.85 µM; in [9], 1.03 µM; in experiment [10] it was 2.37 µM.

On to `Cc1cc(C)c(C(=O)CC(=O)c2cccnc2)c(C)c1`, for which the GI50 in experiment [1] is 4.63 µM; in [2], 4.31 µM; in [3], 6.93 µM; in experiment [4], 3.36 µM; in experiment [5] it was 14.1 µM; in experiment [6] it was 10.5 µM. Besides, the GI50 was 9.45 µM in experiment [7], 14 µM in experiment [8], 5.31 µM in experiment [9] and 4.58 µM in [10]. Also, the TGI in experiment [1] is more than 100 µM; in [2] it was more than 100 µM; in experiment [3], 45.7 µM; in experiment [4] it was more than 100 µM; in experiment [5] it was more than 100 µM; in experiment [6] it was more than 100 µM. The TGI in experiment [7] was 50.1 µM; in experiment [8], more than 100 µM; in experiment [9], 33.9 µM; in [10] it was more than 100 µM.

For the molecule `CN(C)c1ccc(N)cc1`, the GI50 is 3.97 µM in [1]; 2.67 µM in [2]; 10.3 µM in [3]; 6.66 µM in [4]; 3.17 µM in experiment [5]; 6.96 µM in experiment [6]. In addition, the GI50 is 8.38 µM in [7], 7.81 µM in experiment [8], 4.66 µM in experiment [9] and 3.24 µM in [10]. Further, the TGI in experiment [1] was found to be 16.3 µM; in experiment [2], 8.44 µM; in experiment [3], 25.5 µM; in experiment [4], 38.5 µM; in [5], 13.8 µM; in experiment [6], 32.7 µM. The TGI stood at 97.5 µM in experiment [7], 22.3 µM in experiment [8], 16.3 µM in experiment [9] and 19.7 µM in [10].

As to `COc1ccc(C(=O)COc2cccc(/C=C3\COc4ccc5ccccc5c4C3=O)c2)cc1`, the GI50 in experiment [1] was 20.4 µM; in [2] it was 4.21 µM; in experiment [3] it was 13.3 µM; in experiment [4], 7.59 µM; in experiment [5], 10.2 µM; in [6], 7.83 µM. Further, the GI50 in experiment [7] is 57.4 µM; in experiment [8], 47.8 µM; in experiment [9], 67.8 µM; in experiment [10], 4.5 µM. Also, the TGI in [1], in [2], in [3], in [4], in [5] and in experiment [6] was more than 100 µM in each case. Besides, the TGI in experiment [7], in [8], in experiment [9] and in [10] was more than 100 µM throughout.

For `CC(C)=CCC/C(=C/CC/C(C)=C/CCc1ccoc1)C(=O)O`, the TGI in experiment [1], in experiment [2], in experiment [3], in experiment [4], in experiment [5] and in [6] was more than 100 µM each time. Moreover, the TGI in experiment [7], in experiment [8], in experiment [9] and in [10] was more than 100 µM each time.

Take `Cc1ccc(S(=O)(=O)n2c(-c3ccccc3)c(-c3ccccc3)c3ccccc32)cc1`: the TGI in [1], in experiment [2], in experiment [3], in experiment [4], in experiment [5] and in [6] was more than 100 µM in each case. Further, the TGI in experiment [7], in [8], in experiment [9] and in experiment [10] was more than 100 µM in each case.

As to `CC(C)c1ccc(C(=O)Nc2sc3c(c2C(N)=O)CCC(=O)C3)cc1`, the GI50 in experiment [1] was 0.267 µM; in experiment [2] it was 0.311 µM; in experiment [3], 0.359 µM; in [4], 0.387 µM; in experiment [5], 1.65 µM; in experiment [6], 0.571 µM. The GI50 in experiment [7] was 2.29 µM; in experiment [8], 1.18 µM; in experiment [9], 0.522 µM; in [10], 0.71 µM. Moreover, the TGI in experiment [1] was 1.1 µM; in [2] it was 1.43 µM; in experiment [3], 1.49 µM; in experiment [4], 2.12 µM; in [5], 4.79 µM; in [6], 3.45 µM. Moreover, the TGI is 10.5 µM in [7], 3.01 µM in experiment [8], 2.44 µM in [9] and 13.3 µM in [10].

`COc1c2c(cc3nc4ccccc4nc13)CCC(C(C)(C)O)C2` (stereo not drawn): the TGI in [1], in experiment [2], in experiment [3], in [4], in experiment [5] and in [6] was more than 100 µM in each case. The TGI in experiment [7], in experiment [8], in experiment [9] and in [10] was more than 100 µM throughout.

Take `COc1cc(OC(=O)c2c(O)cc(O)c(O)c2C)cc(C)c1C(=O)Oc1cc(C)c(C(=O)O)c(O)c1`: the TGI in [1], in experiment [2], in experiment [3], in [4], in experiment [5] and in [6] was more than 100 µM throughout. In addition, the TGI in experiment [7], in experiment [8], in experiment [9] and in experiment [10] was more than 100 µM in each case.

With `CC(=O)OC[C@]12CC[C@H]3[C@@H](C[C@H]4O[C@]45[C@@H](O)C=CC(=O)[C@]35C)[C@@H]1CC[C@@H]2[C@H](C)[C@H]1CC(C)=C(C)C(=O)O1`, the GI50 in experiment [1] was 0.84 µM and 0.776 µM; in [2] it was 0.277 µM and 0.166 µM; in experiment [3], 0.303 µM and 0.2 µM; in [4], 0.294 µM and 0.177 µM; in [5] it was 1.11 µM; in experiment [6], 0.397 µM and 0.376 µM. For the same molecule, the GI50 in experiment [7] is 0.241 µM and 0.232 µM; in experiment [8] it was 0.526 µM and 0.381 µM; in experiment [9], 0.442 µM and 0.32 µM; in [10] it was 0.331 µM and 0.285 µM. The TGI is 2 µM in [1]; 0.6 µM and 0.424 µM in experiment [2]; 0.73 µM and 0.452 µM in experiment [3]; 0.751 µM and 0.371 µM in experiment [4]; 2.4 µM in experiment [5]; 1.28 µM in experiment [6]. Further, the TGI in [7] was 0.597 µM and 0.595 µM; in experiment [8], 1.09 µM; in [9] it was 1.11 µM; in experiment [10], 0.899 µM.

In the case of `CCN(CC)c1sc(N(CC)CC)c2c1SSSSS2`, the GI50 in experiment [1] was 0.867 µM; in experiment [2] it was 0.356 µM; in [3], 0.995 µM; in experiment [4], 1.24 µM; in [5], 1.59 µM; in [6] it was 1.96 µM. For the same molecule, the GI50 was 1.2 µM in experiment [7], 1.55 µM in [8], 1.45 µM in experiment [9] and 2.18 µM in [10]. Moreover, the TGI in [1] is 2.88 µM; in experiment [2] it was 1.14 µM; in experiment [3], 2.63 µM; in experiment [4], more than 34.2 µM; in [5] it was 3.45 µM; in experiment [6], 4.53 µM. The TGI in [7] stood at 3.09 µM; in experiment [8], 3.92 µM; in experiment [9], 3.23 µM; in experiment [10], 4.7 µM.

On to `CN(C)CCCn1c2c(c3ccccc3c1=O)C(=O)c1ccccc1-2`, for which the GI50 was 2.5 µM in experiment [1]; 0.578 µM in experiment [2]; 1.86 µM in experiment [3]; 1.85 µM in experiment [4]; 2.31 µM in experiment [5]; 2.71 µM in [6]. In addition, the GI50 in experiment [7] is 2.47 µM; in experiment [8] it was 3.97 µM; in experiment [9], 3.66 µM; in [10] it was 0.336 µM. The TGI in experiment [1] is 23.5 µM; in experiment [2], 4.34 µM; in experiment [3], 9.14 µM; in experiment [4] it was 12 µM; in experiment [5] it was 5.71 µM; in experiment [6] it was 15.2 µM. The TGI stood at 14.2 µM in experiment [7], 18.3 µM in experiment [8], 17.1 µM in [9] and 1.34 µM in experiment [10].
